Data set [1] can be described thus: Solubility characteristics.
A short description of data set [2]: Potentiometric titration in methylcellosolve/water 4:1 (pKa, pH1/2). Format: physicochemical. Particulars: methylcellosolve/water 4:1 (v/v), excess 0.01 M HCl, titrated with 0.01 M NaOH. The protocol: ^(c) the samples are dissolved in methylcellosolve ®/water 4:1
(v/v), an excess of 0.01 M hydrogen chloride in the same mixture is added
thereto and the resulting solution is titrated with 0.01 M NaOH in the […]

The subject of the next data set is S. aureus TOUR. Put plainly: MIC, standard agar-dilution test. Format: cell-based. From the text:
Isosensitest broth (Oxoid) and Todd-Hewitt broth (Difco) are used for growing staphylococci and streptococci, respectively. […]

For the next data set, the system named is S. faecalis ATCC 7080. Put plainly: MIC, standard agar-dilution test. In kind it is cell-based. Particulars: inoculum about 10^4 CFU/ml. The procedure: (§1) Isosensitest broth (Oxoid) and Todd-Hewitt broth (Difco) are used for growing staphylococci and streptococci, respectively. Broth cultures are diluted so that the final inoculum is about 10^4 colony forming units/ml (CFU/ml).

The test system of another data set is E. coli SKF 12140. Put plainly: MIC, standard agar-dilution test. Format: cell-based. Particulars: inoculum about 10^4 CFU/ml. The procedure: as §1
A further data set deals with S. aureus ATCC 6538. Put plainly: MIC, standard agar-dilution test. Particulars: inoculum about 10^4 CFU/ml, 18-24 h at 37° C. Format: cell-based. The procedure: as §1
For another data set, the system named is S. pneumoniae UC 41. Put plainly: MIC, standard agar-dilution test. In kind it is cell-based. Particulars: inoculum about 10^4 CFU/ml. The protocol:
as §1

The subject of data set [3] is S. epidermidis ATCC 12228. Put plainly: MIC, standard agar-dilution test. Format: cell-based. Particulars: inoculum about 10^4 CFU/ml. The procedure: as §1
The subject of data set [4] is S. pyogenes C 203 SKF 13400. Put plainly: MIC, standard agar-dilution test. Particulars: Todd-Hewitt broth, inoculum about 10^4 CFU/ml. Format: cell-based. The protocol: as §1
[5] abbreviates: S. aureus TOUR + 30% bovine serum.

Turning to `CC(=O)N[C@@H]1[C@@H](O[C@H]2c3ccc(c(Cl)c3)Oc3cc4cc(c3O)Oc3ccc(cc3Cl)C[C@@H]3NC(=O)[C@@H](N)c5ccc(O)c(c5)Oc5cc(O)cc(c5)[C@@H](NC3=O)C(=O)N[C@@H]4C(=O)N[C@@H]3C(=O)N[C@H]2C(=O)N[C@@H](C(=O)O)c2cc(O)cc(O)c2-c2cc3ccc2O)O[C@@H](CO)[C@H](O)[C@H]1O` (stereo in doubt) [Antibiotic L 17046], in data set [1], the “solubility in dimethylformamide, dimethylsulfoxide, propyleneglycol and methylcellosolve” value is reported as “freely soluble”; the solubility in methanol entry is “slightly soluble”. For the same compound, the solubility in water result in [1] (water at pH>8.0) is on record as “freely soluble”.
On to `N[C@H]1C(=O)N[C@@H]2Cc3ccc(c(Cl)c3)Oc3cc4cc(c3O)Oc3ccc(cc3Cl)[C@@H](O)[C@@H]3NC(=O)[C@H](NC(=O)[C@@H]4NC(=O)[C@@H](NC2=O)c2cc(O)cc(c2)Oc2cc1ccc2O)c1ccc(O)c(c1)-c1c(O)cc(O)cc1[C@@H](C(=O)O)NC3=O` [Antibiotic L 17392, deglucoteicoplanin], for which, in [1], the “solubility in aqueous methanol, ethanol and acetone” value was “soluble”; the “solubility in ethyl alcohol and dimethylformamide” value was “slightly soluble”. The solubility in water entry in [1] (water at a pH higher than 9) is reported as “soluble”.
What is called pKa is the pH at which an ionisable group is half protonated. Low readings indicate a group that gives up its proton readily, high ones a group that holds its proton tightly. As to “N-benzyloxycarbonyl deglucoteicoplanin [Example 4]”, in [2], the pKa is on record as 5.02.
With “deglucoteicoplanin 4-chloro-butyl ester [Example 9]”, in [2], the pKa is listed as 6.60.
By MIC is commonly meant the lowest concentration that inhibits growth of the organism. Take “deglucoteicoplanin benzyl ester, hydrochloride [Example 3]”: the pKa in data set [2] came out at 6.67. For the same compound, the minimum inhibitory concentration (MIC) against S. aureus TOUR (S. aureus TOUR (10^3 CFU/ml)) amounted to 0.4 µg/mL; in the data set with S. aureus TOUR (S. aureus TOUR (10^6 CFU/ml)), 0.4 µg/mL; in the data set with S. aureus TOUR (setting [5]), 0.8 µg/mL; against S. faecalis ATCC 7080 it was 0.4 µg/mL; in the data set with E. coli SKF 12140, 12.5 µg/mL; with S. aureus ATCC 6538, 0.4 µg/mL. In addition, the MIC was 0.2 µg/mL against S. pneumoniae UC 41, 0.1 µg/mL in data set [3] and 0.05 µg/mL in data set [4].
“deglucoteicoplanin n-butyl ester, hydrochloride [Example 1]” displayed a pKa in data set [2] of 6.57. Besides, the MIC against S. aureus TOUR (S. aureus TOUR (10^3 CFU/ml)) came to 0.1 µg/mL; in the data set with S. aureus TOUR (S. aureus TOUR (10^6 CFU/ml)) it was 0.4 µg/mL; in the data set on S. aureus TOUR (setting [5]), 0.4 µg/mL; against S. faecalis ATCC 7080, 0.2 µg/mL; in the data set on E. coli SKF 12140, 50 µg/mL; in the data set on S. aureus ATCC 6538, 0.05 µg/mL. For the same compound, the MIC against S. pneumoniae UC 41 stood at 0.1 µg/mL; in [3], 0.05 µg/mL; in data set [4], 0.1 µg/mL.
On to “deglucoteicoplanin n-octyl ester, hydrochloride [Example 2]”, for which the pKa in data set [2] is on record as 6.82. Also, the MIC with S. aureus TOUR (S. aureus TOUR (10^3 CFU/ml)) was 0.2 µg/mL; with S. aureus TOUR (S. aureus TOUR (10^6 CFU/ml)), 0.8 µg/mL; with S. aureus TOUR (setting [5]), 0.8 µg/mL; against S. faecalis ATCC 7080, 0.4 µg/mL; against E. coli SKF 12140, more than 100 µg/mL; in the data set with S. aureus ATCC 6538 it was 0.2 µg/mL. For the same compound, the MIC with S. pneumoniae UC 41 was found to be 0.05 µg/mL; in data set [3], 0.1 µg/mL; in data set [4], 0.05 µg/mL.

For the origin of these results see patent US4954483A, “Carboxylic acid ester derivatives or deglucoteicoplanin” (Gruppo Lepetit, S.p.A., priority 1984, dated 1990).
